Assay results as given in patent US11116746B2, “Use of rice bran oil distillate extract for prevention and mitigation of the effects of radiation” (Tocol Pharmaceuticals, LLC, priority 2015, dated 2021).

Columns and labels:
[1] = system: H9c2 rat heart cardiomyocytes; test: Cell morphology of cardiomyocytes after H2O2 damage; format: cell-based; settings: 5 μM pretreatment overnight; 100 and 200 μM H2O2 for 4 h
Protocol: H9c2 rat heart cardiomyocytes were treated with either vehicle control (DMSO, 0.1% v/v), 5 μM delta-tocotrienol or 5 μM TRFRB overnight. Cells were then exposed to 100 or 200 μM H2O2 for 4 h. Morphological changes were recorded under an inverted microscope. Pictures were taken at 10× magnification. Scale bar represents 400 μm.
We then investigated whether TRFRB can protect the various cells types from different tissue origins against H2O2 or IR induced oxidative damage.

[2] = system: H9c2 rat heart cardiomyocytes; test: Mitochondrial bioenergetics (oxygen consumption rate, XF96 analyzer) in H9c2 cells with or without H2O2; format: cell-based
Protocol: Oxygen consumption rate (OCR) was measured at 37° C. using an XF96 extracellular analyzer (Seahorse Bioscience) as previously described Pathak et al., Antioxid Redox Signal 2014, 20, 1436-1446. H9c2 rat heart cardiomyocytes cells were plated in 96 well Seahorse plates. The next day they were treated with either vehicle (DMSO, 0.1% v/v) or 5 μM of DT3 or 5 μM of TRFRB overnight. The cells were then treated with 50 or 100 μM H2O2 for 4 h at 37° C. The media in the wells were changed to unbuffered DMEM supplemented with 4 mM […] and incubated in a non-CO2 incubator for 1 h at 37° C. Three baseline measurements were acquired before injection of mitochondrial inhibitors or uncouplers. Readings were taken after sequential addition of oligomycin (10 μM), carbonylcyanide 4-(trifluoromethoxy)phenylhydrazone (FCCP, 10 μM) and rotenone/antimycin A (10 μM). Oxygen consumption rates were calculated by the Seahorse XF-96 software and represent an average of 3 measurements on 8 different wells. The rate of measured oxygen consumption was reported as pmol O2 consumed per minute per 10,000 cells.
Therefore, the next experiment assessed the effects of TRFRB and pure DT3 on cellular bioenergetics and mitochondrial respiration in the absence of any cellular stress. Intracellular mitochondrial function was examined by sequentially adding inhibitors of oxidative phosphorylation. Initially we took 3 measurements to determine the “basal respiration” of the cells. By injecting an inhibitor of mitochondrial ATP synthase (oligomycin), a decrease in oxygen consumption rate (OCR) was obtained and this decrease in OCR is termed as “ATP linked respiration”. In order to determine the maximal respiration potential of the cells, FCCP, an uncoupler, was used. Immediately following FCCP injection, oxygen consumption increased and cells reached to their maximum respiration. Mitochondrial “reserve respiratory capacity” was calculated by subtracting […]. Overnight (16 h) treatment of both DT3 and TRFRB increased basal oxygen consumption rate (OCR) as well as maximum OCR in H9c2 rat heart cardiomyocytes (FIG. 4A). […] 100 μM H2O2 treatment for 4 h completely halted the cellular respiration (FIGS. 4B and C).

HaCaT cells [3] = test: Mitochondrial bioenergetics (mitochondrial uncoupling) in irradiated keratinocytes; format: cell-based, human; settings: 5 μM pretreatment 16 h prior to 8 Gy IR; 48 h following IR; normalized to sham irradiated control
Protocol: In order to determine the radioprotective effects of TRFRB, human immortalized keratinocytes (HaCaT cells) were plated in 96 well Seahorse plates. The next day they were treated with either vehicle (DMSO, 0.1% v/v) or 5 μM of DT3 or 5 μM of TRFRB overnight. The Seahorse plates were either sham irradiated or irradiated with 8 Gy of γ-irradiation. Both plates were sequentially run in the XF96 extracellular analyzer as described above.
Secondly we utilized an immortalized human skin keratinocyte line (HaCaT cells) to evaluate the radioprotective effects of TRFRB. HaCaT cells were pretreated with DMSO vehicle or 5 μM of DT3 or TRFRB for 16 h prior to 8 Gy IR. Then the cellular bioenergetics and mitochondrial respiration in these cells were assayed at 48 h following IR exposure as described with H9c2 cells. The percent mitochondrial uncoupling is defined and calculated by determining the increase in the ratio of basal respiration to maximum respiration (OCR following FCCP treatment) and the data was normalized to the sham irradiated control group.

HaCaT cells [4] = test: In vitro scratch assay (keratinocyte migration) after 8 Gy IR; format: cell-based, human; settings: 5 μM given 4 h after IR exposure
Protocol: Human immortalized keratinocytes (HaCaT cells) were plated in 12 well culture plates and irradiated with 8 Gy or sham irradiated 24 h after plating. The cells were given either vehicle (DMSO, 0.1% v/v) or 5 μM of DT3 or 5 μM of TRFRB 4 hours following radiation. Culture media were replaced again at 36 h following radiation. At the 72 h time point, a scratch was made using a sterile micropipette tip in each well. This created an open area into which the keratinocytes migrated. Two areas of the scratch margins were imaged daily until scratches were closed. The area of the scratch remaining was measured on the images at five points per field, with two fixed fields averaged using Cell Analyzer 1.0 (BWTech, Iowa City, Iowa). Measurements were stopped when cells no longer made positive progress towards the scratch origin. See Ross et al., Exp Dermatol 2011, 20, 58-63.
This protection in the increased survival fraction was not statistically significant compared to 8 Gy IR alone group (FIG. 7). An in vitro scratch assay was utilized to evaluate the protective efficacy of TRFRB for keratinocyte migration function when the cells were treated with TRFRB after IR exposure.

[5] = single injection; cited from earlier work
[6] = system: TBHP induced lipid peroxidation in Wistar rat liver microsomes; test: TBARS assay: inhibition of TBHP induced microsomal lipid peroxidation; format: biochemical; settings: microsomes pretreated 1 h, then TBHP 30 min; TRFRB expressed in μM of tocotrienols; read-out: IC50, concentration that reduced the amount of lipid peroxidation approximately 50%
Protocol: The antioxidant activity of TRFRB was assessed measuring the ability to prevent microsomal lipid peroxidation. For this a TBARS assay was performed using a modified version of the original method described by Buege and Aust, Microsomal lipid peroxidation. Methods Enzymol 1978, 52, 302-310. Briefly, rat liver microsomes (BD Bioscience) were suspended in PBS in glass tubes at final concentration of 1 mg/mL. To this, increasing concentrations of TRFRB dissolved in DMSO were added. DMSO alone was used as control. The final DMSO percentage was kept under 0.1%. Microsomes were subsequently incubated with the test compounds at 37° C. for one hour in a shaking water bath (100 rpm). After one hour, freshly made tert-Butyl hydroperoxide (TBHP) solution was added to microsomes at a final concentration of 200 μM and incubation was continued for another 30 mins. The reaction was terminated by addition of 20% trichloroacetic acid and tubes were placed on ice for 15 mins. Equal volume of 0.67% thiobarbituric acid in 0.05N NaOH was added and the final mixture was heated at 95° C. for 45 mins to allow the color to develop. Finally, the tubes were cooled on ice and centrifuged at 1000 rpm for 20 mins and the supernatant was read at 532 nm. The percent TBARS was calculated using a standard curve obtained using malondialdehyde (MDA). […]

Row | Compound | protection of cell morphology against H2O2 treatment [1] | mitochondrial respiration following H2O2 injury ([2]; 5 μM for 16 h prior to 50 or 100 μM H2O2 for 4 h) | basal oxygen consumption rate (OCR) ([2]; 5 μM overnight (16 h), no cellular stress) | maximum OCR ([2]; 5 μM overnight (16 h), no cellular stress, after FCCP) | reserve respiratory capacity ([2]; calculated from maximum and basal OCR) | degree of mitochondrial uncoupling (HaCaT cells [3]) | migration rates (HaCaT cells [4]) | dose reduction factor (DRF) as a radiomitigator [5] | dose reduction factor (DRF) as a radioprotectant [5] | IC50 [6] [µM]
1 | CC(C)=CCC/C(C)=C/CC/C(C)=C/CC[C@]1(C)CCc2cc(O)cc(C)c2O1 [DT3, δ-tocotrienol] | significantly protected the morphology | complete protection and restored the mitochondrial respiration | increased | increased | an increase in reserve respiratory capacity | this increase was reversed | partially restored | 1.1 | 1.27 | 
2 | CC(C)=CCC/C(C)=C/CC/C(C)=C/CC[C@]1(C)CCc2cc(O)c(C)c(C)c2O1 [GT3, γ-tocotrienol] |  |  |  |  |  |  |  |  | 1.29 | 7
